From patent publication US11629171B2, “Beta-hairpin peptidomimetics” (POLYPHOR AG, priority 2017, dated 2023)
Converted amounts (≈) assume the structure as drawn. Where a SMILES comes first, the peptide text is derived from it. Bridges are numbered along the chain shown (N, C = ends). Roman numbers before positions name the chains, in order. [ ]: non-standard residue; d: D form. Leu(3R-OH) = CC(C)[C@@H](O)[C@H](N)C(=O)O; d(pGlu) = O=C1CC[C@H](C(=O)O)N1; Thr(ol) = C[C@@H](O)[C@H](N)CO; Pen = CC(C)(S)[C@H](N)C(=O)O; Tle = CC(C)(C)[C@H](N)C(=O)O; Hiv = CC(C)[C@H](O)C(=O)O; dDab = NCC[C@@H](N)C(=O)O; hSer = N[C@@H](CCO)C(=O)O; Dab = NCC[C@H](N)C(=O)O; Dap = NC[C@H](N)C(=O)O

Assays:
Assay type in all cases: cell-based
[1] = test system: Acinetobacter baumannii 872842; settings: 872842
Procedure, shortened: (§1)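 Cation-adjusted MH-II broth, 0.002% polysorbate 80, inoculum near 10^6 CFU/mL. MIC read visually after 18-20 h, 35° C; units μg/mL.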

[2] = test system: Acinetobacter baumannii DSM 30008; settings: DSM 30008
Procedure, shortened: as §1

[3] = test system: Enterobacter cloacae 848840; settings: 848840
Procedure, shortened: as §1

[4] = test system: Escherichia coli 926415; settings: 926415
Procedure, shortened: as §1

[5] = test system: Escherichia coli ATCC 25922; settings: ATCC 25922
Procedure, shortened: as §1

[6] = test system: Klebsiella pneumoniae 968733; settings: 968733
Procedure, shortened: as §1

[7] = test system: Klebsiella pneumoniae SSI #3010; settings: SSI #3010
Procedure, shortened: as §1

[8] = test system: Pseudomonas aeruginosa ATCC 27853; settings: ATCC 27853
Procedure, shortened: as §1

[9] = test system: human red blood cells (hRBC); test: Hemolysis; settings: red cells of human, 1 h, 200
Procedure, shortened: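 Read-out is supernatant absorbance at 540 nm, normalised to full lysis by 2% Triton X-100 and zero lysis by PBS with 10% water. Peptides (200 μg/mL) were exposed to 20% v/v washed human erythrocytes at 37° C for 1 h under shaking.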

Row | MIC [1] [mg/L] | MIC [2] [mg/L] | MIC [3] [mg/L] | MIC [4] [mg/L] | MIC [5] [mg/L] | MIC [6] [mg/L] | MIC [7] [mg/L] | MIC [8] [mg/L] | Acinetobacter baumannii DSM 30008 MIC [2] [mg/L] | Escherichia coli ATCC 25922 MIC [5] [mg/L] | Klebsiella pneumoniae SSI #3010 MIC [7] [mg/L] | Pseudomonas aeruginosa ATCC 27853 MIC [8] [mg/L] | Compound | Hemolysis at 200 μg/mL [9] [%]
1 | 0.5 (≈ 0.202 µM) | 0.125 (≈ 0.0506 µM) | 0.25 (≈ 0.101 µM) | 1 (≈ 0.405 µM) | 0.125 (≈ 0.0506 µM) | 4 (≈ 1.62 µM) | 0.125 (≈ 0.0506 µM) | 0.25 (≈ 0.101 µM) | – | – | – | – | CC(C)C[C@@H]1NC(=O)[C@@H](CC(C)C)NC(=O)[C@H](CCN)NC(=O)[C@@H](NC(=O)[C@H](CCN)NC(=O)[C@@H](NC(=O)[C@H](CCN)NC(=O)CC[C@@H]2NC(=O)[C@@H](NC(=O)[C@H](Cc3ccc(O)cc3)NC(=O)[C@H](CCC(=O)O)NC(=O)[C@@H](O)C(C)C)CSSC[C@@H](C(=O)N[C@H](C(=O)N[C@@H](CCCCN)C(=O)N[C@H](CO)[C@@H](C)O)C(C)(C)C)NC(=O)[C@H](Cc3c[nH]c4ccccc34)NC(=O)[C@H]([C@@H](C)O)NC(=O)[C@@H](CCN)NC2=O)[C@@H](C)O)CCNC(=O)[C@H]([C@@H](C)O)NC(=O)[C@H](CCN)NC(=O)[C@H](CCN)NC1=O [Ex. 189] (I: H-[Hiv]EYCE[dDab]TWC[Tle]K[Thr(ol)] / II: [Dab]T[Dab][Dab][Dab][dL]L[Dab][Dab]T; disulfide I:4-I:9; amide I:5-II:N; lactam II:4-II:C) | <1
2 | 0.0625 (≈ 0.0255 µM) | 0.01562 (≈ 0.00636 µM) | 0.125 (≈ 0.0509 µM) | 0.125 (≈ 0.0509 µM) | 0.03125 (≈ 0.0127 µM) | 0.25 (≈ 0.102 µM) | 0.0625 (≈ 0.0255 µM) | 0.125 (≈ 0.0509 µM) | – | – | – | – | CC(=O)N[C@H](C(=O)N[C@H]1CSSC[C@@H](C(=O)N[C@@H](CO)C(N)=O)NC(=O)[C@H](C(C)(C)C)NC(=O)[C@H](CCC(=O)O)NC(=O)[C@H](Cc2c[nH]c3ccccc23)NC(=O)[C@H](CO)NC(=O)[C@@H](CCN)NC(=O)[C@H](CCC(=O)N[C@@H](CCN)C(=O)N[C@H](C(=O)N[C@@H](CN)C(=O)N[C@H]2CCNC(=O)[C@H]([C@@H](C)O)NC(=O)[C@H](CCN)NC(=O)[C@H](CCN)NC(=O)[C@H](CC(C)C)NC(=O)[C@@H](CC(C)C)NC(=O)[C@H](CCN)NC2=O)[C@@H](C)O)NC(=O)[C@H](CCN)NC(=O)[C@H](Cc2ccc(O)cc2)NC1=O)C(C)C [Ex. 154] (I: Ac-VCY[Dab]E[dDab]SWE[Tle]CS-NH2 / II: [Dab]T[Dap][Dab][Dab][dL]L[Dab][Dab]T; disulfide I:2-I:11; amide I:5-II:N; lactam II:4-II:C) | <1
3 | 0.03125 (≈ 0.0129 µM) | 0.0625 (≈ 0.0258 µM) | 0.125 (≈ 0.0515 µM) | 0.0625 (≈ 0.0258 µM) | 0.0625 (≈ 0.0258 µM) | 0.125 (≈ 0.0515 µM) | 0.125 (≈ 0.0515 µM) | 0.125 (≈ 0.0515 µM) | – | – | – | – | CNC(=O)[C@H](CO)NC(=O)[C@@H]1CSSC[C@H](NC(=O)[C@@H](NC(C)=O)C(C)C)C(=O)N[C@@H](Cc2ccc(O)cc2)C(=O)N[C@@H](CCN)C(=O)N[C@@H](CCC(=O)N[C@@H](CCN)C(=O)N[C@H](C(=O)N[C@@H](CN)C(=O)N[C@H]2CCNC(=O)[C@H]([C@@H](C)O)NC(=O)[C@H](CCN)NC(=O)[C@H](CCN)NC(=O)[C@H](CC(C)C)NC(=O)[C@@H](CC(C)C)NC(=O)[C@H](CCN)NC2=O)[C@@H](C)O)C(=O)N[C@H](CCN)C(=O)N[C@@H](CO)C(=O)N[C@@H](Cc2c[nH]c3ccccc23)C(=O)N[C@@H](CO)C(=O)N[C@@H](C(C)(C)C)C(=O)N1 [Ex. 145] (I: Ac-VCY[Dab]E[dDab]SWS[Tle]CS-NHMe / II: [Dab]T[Dap][Dab][Dab][dL]L[Dab][Dab]T; disulfide I:2-I:11; amide I:5-II:N; lactam II:4-II:C) | 2
4 | 0.0625 (≈ 0.0252 µM) | 0.0625 (≈ 0.0252 µM) | 0.125 (≈ 0.0503 µM) | 0.0625 (≈ 0.0252 µM) | 0.03125 (≈ 0.0126 µM) | 0.0625 (≈ 0.0252 µM) | 0.0625 (≈ 0.0252 µM) | 0.125 (≈ 0.0503 µM) | – | – | – | – | CC(C)C[C@@H]1NC(=O)[C@@H](CC(C)C)NC(=O)[C@H](CCN)NC(=O)[C@@H](NC(=O)[C@H](CN)NC(=O)[C@@H](NC(=O)[C@H](CCN)NC(=O)CC[C@@H]2NC(=O)[C@H](CN)NC(=O)[C@H](Cc3ccc(O)cc3)NC(=O)[C@@H](NC(=O)[C@@H](NC(=O)[C@H]3CCC(=O)N3)C(C)C)CSSC[C@@H](C(=O)N[C@H](CO)[C@@H](C)O)NC(=O)[C@H](C(C)(C)C)NC(=O)[C@H](CO)NC(=O)[C@H](Cc3c[nH]c4ccccc34)NC(=O)[C@H]([C@@H](C)O)NC(=O)[C@@H](CCN)NC2=O)[C@@H](C)O)CCNC(=O)[C@H]([C@@H](C)O)NC(=O)[C@H](CCN)NC(=O)[C@H](CCN)NC1=O [Ex. 233] (I: [d(pGlu)]VCY[Dap]E[dDab]TWS[Tle]C[Thr(ol)] / II: [Dab]T[Dap][Dab][Dab][dL]L[Dab][Dab]T; disulfide I:3-I:12; amide I:6-II:N; lactam II:4-II:C) | <1
5 | 0.25 (≈ 0.0989 µM) | 0.125 (≈ 0.0495 µM) | 0.125 (≈ 0.0495 µM) | 0.25 (≈ 0.0989 µM) | 0.0625 (≈ 0.0247 µM) | 1 (≈ 0.396 µM) | 0.0625 (≈ 0.0247 µM) | 0.125 (≈ 0.0495 µM) | – | – | – | – | CC(=O)N[C@H](C(=O)N[C@H](C(=O)N[C@@H](Cc1ccc(O)cc1)C(=O)N[C@H]1CSSC(C)(C)[C@@H](C(=O)N[C@H](C(=O)N[C@@H](CCC(=O)O)C(=O)N[C@H](C(N)=O)[C@@H](C)O)C(C)(C)C)NC(=O)[C@H](Cc2c[nH]c3ccccc23)NC(=O)[C@H](CCN)NC(=O)[C@@H](CCN)NC(=O)[C@H](CCC(=O)N[C@@H](CCN)C(=O)N[C@H](C(=O)N[C@@H](CN)C(=O)N[C@H]2CCNC(=O)[C@H]([C@@H](C)O)NC(=O)[C@H](CCN)NC(=O)[C@H](CCN)NC(=O)[C@H]([C@H](O)C(C)C)NC(=O)[C@@H](CC(C)C)NC(=O)[C@H](CCN)NC2=O)[C@@H](C)O)NC1=O)[C@@H](C)O)C(C)C [Ex. 225] (I: Ac-VTYCE[dDab][Dab]W[Pen][Tle]ET-NH2 / II: [Dab]T[Dap][Dab][Dab][dL][Leu(3R-OH)][Dab][Dab]T; disulfide I:4-I:9; amide I:5-II:N; lactam II:4-II:C) | <1
6 | 0.25 (≈ 0.0994 µM) | – | 0.25 (≈ 0.0994 µM) | 0.5 (≈ 0.199 µM) | – | 1 (≈ 0.398 µM) | – | – | 0.0625 | 0.0625 | 0.0625 | 0.125 | CC(=O)N[C@H](C(=O)N[C@H]1CSSC[C@@H](C(=O)N[C@@H](CO)C(=O)N[C@H](CC(=O)O)C(N)=O)NC(=O)[C@H](C(C)C)NC(=O)[C@H](CO)NC(=O)[C@H](Cc2c[nH]c3ccccc23)NC(=O)[C@H](CO)NC(=O)[C@@H](CCN)NC(=O)[C@H](CCC(=O)N[C@@H](CCN)C(=O)N[C@H](C(=O)N[C@@H](CN)C(=O)N[C@H]2CCNC(=O)[C@H]([C@@H](C)O)NC(=O)[C@H](CCN)NC(=O)[C@H](CCN)NC(=O)[C@H](CC(C)C)NC(=O)[C@@H](CC(C)C)NC(=O)[C@H](CCN)NC2=O)[C@@H](C)O)NC(=O)[C@H](CCN)NC(=O)[C@H](Cc2ccc(O)cc2)NC1=O)C(C)C [Ex. 374] (I: Ac-VCY[Dab]E[dDab]SWSVCS[dD]-NH2 / II: [Dab]T[Dap][Dab][Dab][dL]L[Dab][Dab]T; disulfide I:2-I:11; amide I:5-II:N; lactam II:4-II:C) | <1

Row | Compound | MIC [1] [mg/L] | MIC [2] [mg/L] | MIC [3] [mg/L] | MIC [4] [mg/L] | MIC [5] [mg/L] | MIC [6] [mg/L] | MIC [7] [mg/L] | MIC [8] [mg/L] | Acinetobacter baumannii DSM 30008 MIC [2] [mg/L] | Escherichia coli ATCC 25922 MIC [5] [mg/L] | Klebsiella pneumoniae SSI #3010 MIC [7] [mg/L] | Pseudomonas aeruginosa ATCC 27853 MIC [8] [mg/L] | Hemolysis at 200 μg/mL [9] [%]
7 | CC(C)C[C@@H]1NC(=O)[C@@H](CC(C)C)NC(=O)[C@H](CCN)NC(=O)[C@@H](NC(=O)[C@H](CCN)NC(=O)[C@@H](NC(=O)[C@H](CCN)NC(=O)CC[C@@H]2NC(=O)[C@@H]3CSSC[C@H](NC(=O)[C@H](Cc4c[nH]c5ccccc45)NC(=O)[C@H](CCO)NC(=O)[C@@H](CCN)NC2=O)C(=O)N[C@@H](C(C)C)C(=O)N[C@H](C(=O)N[C@@H](CO)C(N)=O)CSSC[C@H](NC(=O)[C@@H](N)C(C)C)C(=O)N[C@@H](Cc2ccc(O)cc2)C(=O)N3)[C@@H](C)O)CCNC(=O)[C@H]([C@@H](C)O)NC(=O)[C@H](CCN)NC(=O)[C@H](CCN)NC1=O [Ex. 176] (I: H-VCYCE[dDab][hSer]WCVCS-NH2 / II: [Dab]T[Dab][Dab][Dab][dL]L[Dab][Dab]T; disulfide I:2-I:11, I:4-I:9; amide I:5-II:N; lactam II:4-II:C) | 0.125 (≈ 0.052 µM) | 0.125 (≈ 0.052 µM) | 0.5 (≈ 0.208 µM) | 0.25 (≈ 0.104 µM) | 0.0625 (≈ 0.026 µM) | 0.25 (≈ 0.104 µM) | 0.125 (≈ 0.052 µM) | 0.125 (≈ 0.052 µM) | – | – | – | – | <1
